For 41 compounds, IC50 results are on record in US20070259879A1, “Piperazine and piperidine biaryl derivatives” (priority 2006, published 2007).

This assay relates to HIV-1 pseudotyped virus. Description: HIV-1 pseudotyped virus assay (luciferase reporter gene, single cycle of infection). In kind it is cell-based. The note with it: Human immunodeficiency virus 1, CCR5, 72 h, read-out: Activity (antiviral activity, IC50). The text has this:
In this example are illustrated experimental procedures for determining biological activity, such as antiviral activity. For determining biological activity, an HIV-1 infection assay was used to determine the antiviral potency for compounds of the present invention.
For determining biological activity, an HIV-1 pseudotyped virus assay was used to determine the respective antiviral potencies of each compound tested in the assay for comparison. The pseudotyped assay scores for a reduction in infection as indicated by decreased signal from the reporter gene encoding a luciferase enzyme (“reporter gene”). The assay employs cell lines expressing CD4 and either of the primary chemokine receptors (CCR5 or CXCR4) that HIV uses as a co-receptor (“target cells”). Pseudotyped virus was prepared by co-transfection of 293T cells with: 1) a plasmid construct carrying the HIV-1 envelope of choice, in combination with 2) a pseudotyped virus backbone construct in which (a) envelope expression has been abrogated due to a frameshift in the envelope sequence, and (b) the reporter gene replaces nef. Expression of HIV-1 envelope on 293T packaging cells results in the production of a pseudotyped virus carrying the reporter gene that is capable of a single cycle of infection.
The compounds of the present invention being tested for antiviral activity were serially diluted and dose responses determined in duplicate in two separate experiments. The compounds to be tested were added directly to the plated, target cells, followed by the addition of pseudotyped virus described above. The cells were cultured for three days prior harvest. Media and compound were removed, the cell monolayer was washed, lysed by detergent, and then frozen at −80 degrees C. for a minimum of 30 minutes. Following thawing and acclimation to room temperature, luciferase production was quatified by injecting 100 […]I of a substrate (of the enzyme encoded by the reporter gene) into each well followed by detecting the signal (light emitted from the interaction between the enzyme and substrate) after 5 seconds. In the pseudotyped assay, a 50% reduction in signal is significant, and provides the primary cutoff value for assessing antiviral activity (“IC50” is defined as the dilution resulting in a 50% reduction in enzymatic activity as interpolated from a titration curve). Representative compounds according to the present invention, and their antiviral activity, are illustrated in Table 3.
Turning to `Cc1cc(C(=O)C(=O)N2CCN(C(=O)c3ccccc3)C[C@H]2C)ccc1-c1cc[nH]n1` [Example 184, 1-((R)-4-Benzoyl-2-methyl-piperazin-1-yl)-2-[3-methyl-4-(1H-pyrazol-3-yl)-phenyl]-ethane-1,2-dione], the IC50 was < 5 µM.

On to `C[C@@H]1CN(C(=O)c2ccccc2)CCN1C(=O)C(=O)c1ccc(-c2nccs2)cc1` [Example 103, 1-((R)-4-Benzoyl-2-methyl-piperazin-1-yl)-2-(4-thiazol-2-yl-phenyl)-ethane-1,2-dione], for which the half-inhibitory concentration (IC50) was < 5 µM. Turning to `Cc1c[nH]c(-n2cc(-c3ccc(S(=O)(=O)N4CCN(C(=O)c5ccccc5)C[C@H]4C)s3)nn2)n1` [Example 129, ((R)-3-Methyl-4-{5-[1-(4-methyl-1H-imidazol-2-yl)-1H-[1,2,3]triazol-4-yl]-thiophene-2-sulfonyl}-piperazin-1-yl)-phenyl-methanone], the IC50 is > 5 µM.

`Cc1cc(-c2ccc(C(=O)C(=O)N3CCN(C(=O)c4ccccc4)C[C@H]3C)cc2F)on1` [Example 210]: the 50% inhibitory concentration (IC50) was < 5 µM.

On to `C[C@@H]1CN(C(=O)c2ccccc2)CCN1S(=O)(=O)c1ccc(-c2cn(Cc3ccccc3)nn2)cc1` [Example 122, [(R)-4-[4-(1-Benzyl-1H-[1,2,3]triazol-4-yl)-benzenesulfonyl]-3-methyl-piperazine-1-yl}-phenyl-methanone], for which the IC50 was > 5 µM. Under `CC1CN(C(=O)c2ccccc2)CCN1S(=O)(=O)c1ccc(-n2nccn2)cc1` (centres unmarked) [Example 117, [3-methyl-4-(4-[1,2,3]triazol-2-yl-benzenesulfonyl)-piperazin-1-yl]-phenyl-methanone] stands > 5 µM. Under `C[C@@H]1CN(C(=O)c2ccccc2)CCN1S(=O)(=O)c1ccc(-c2cc(C(F)(F)F)on2)s1` [Example 167, [(R)-3-Methyl-4-(5-[(5-trifluoromethyl)-isoxazol-3-yl]-thiophene-2-sulfonyl)-piperazin-1-yl]-phenyl-methanone] stands > 5 µM; under `C[C@@H]1CN(C(=O)c2ccccc2)CCN1C(=O)C(=O)c1cccc(-c2ncccn2)c1` [Example 253], > 5 µM; under `C[C@@H]1CN(C(=O)c2ccccc2)CCN1C(=O)C(=O)c1ccc(-c2cc[nH]n2)cc1N(C)C` [Example 216, 1-((R)-4-Benzoyl-2-methyl-piperazin-1-yl)-2-[2-dimethylamino-4-(1H-pyrazol-3-yl)-phenyl]-ethane-1,2-dione], > 5 µM. On to `Cc1ncc(-c2ccc(C(=O)C(=O)N3CCN(C(=O)c4ccccc4)C[C@H]3C)s2)s1` [Example 182], for which the concentration for half-maximal inhibition (IC50) is > 5 µM. Regarding `CC1CN(C(=O)c2ccccc2)CCN1C(=O)C(=O)c1ccc(-c2cnn(C)c2)cc1` (centres unmarked) [Example 197], the IC50 was < 5 µM. Regarding `C[C@@H]1CN(C(=O)c2ccccc2)CCN1S(=O)(=O)c1ccc(-c2c[nH]nn2)cc1` [Example 120, {(R)-3-Methyl-4-[4-(1H-[1,2,3]triazol-4-yl)-benzenesulfonyl]-piperazin-1-yl)-phenyl-methanone], the half-maximal inhibitory concentration (IC50) was < 5 µM.

Turning to `CC(=O)c1ccc(-n2cc(-c3ccc(S(=O)(=O)N4CCN(C(=O)c5ccccc5)C[C@H]4C)s3)nn2)cc1` [Example 128], the IC50 was > 5 µM.

On to `C[C@@H]1CN(C(=O)c2ccccc2)CCN1C(=O)C(=O)c1cccc(-c2cnco2)c1` [Example 251], for which the IC50 was > 5 µM. Under `COc1cc(OC)nc(-c2ccc(C(=O)C(=O)N3CCN(C(=O)c4ccccc4)C[C@H]3C)cc2)n1` [Example 254] stands > 5 µM; under `CC1CN(C(=O)c2ccccc2)CCN1S(=O)(=O)c1cccc(-n2cncn2)c1` (centres unmarked) [Example 114, [3-Methyl-4-(3-[1,2,4]triazol-1-yl-benzenesulfonyl)-piperazin-1-yl]-phenyl-methanone], > 5 µM; under `CC1CN(C(=O)c2ccccc2)CCN1C(=O)C(=O)c1ccc(-c2ccn(C)n2)cc1` (centres unmarked) [Example 172, 1-(4-Benzoyl-2-methyl-piperazin-1-yl)-2-[4-(1-methyl-1H-pyrazol-3-yl)-phenyl]-ethane-1,2-dione], < 5 µM.

On to `CC(=O)c1ccc(-n2cc(-c3ccc(S(=O)(=O)N4CCN(C(=O)c5ccccc5)C[C@H]4C)cc3)nn2)cc1` [Example 123], for which the half-maximal inhibitory concentration (IC50) is > 5 µM. Under `Cc1ccc(-c2ccc(C(=O)C(=O)N3CCN(C(=O)c4ccccc4)CC3C)cc2)o1` (centres unmarked) [Example 173, 1-(4-Benzoyl-2-methyl-piperazin-1-yl)-2-[4-(5-methyl-furan-2-yl)-phenyl]-ethane-1,2-dione] stands < 5 µM; under `C[C@@H]1CN(C(=O)c2ccccc2)CCN1S(=O)(=O)c1ccc(-c2c[nH]nn2)s1` [Example 125, {(R)-3-Methyl-4-[5-(1H-[1,2,3]triazol-4-yl)-thiophene-2-sulfonyl]-piperazin-1-yl}-phenyl-methanone], > 5 µM.

Consider `CC1CN(C(=O)c2ccccc2)CCN1S(=O)(=O)c1ccc(C(=O)c2ccco2)cc1` (centres unmarked) [Example 247], for which the concentration for half-maximal inhibition (IC50) is > 5 µM. Under `Cc1nc2cc(-c3ccc(S(=O)(=O)N4CCN(C(=O)c5ccccc5)CC4C)s3)ccc2s1` (centres unmarked) [Example 158, (3-methyl-4-(5-(2-methylbenzo[d]thiazol-5-yl)thiophen-2-ylsulfonyl)piperazin-1-yl)(phenyl)methanone] stands > 5 µM; under `CC1CN(C(=O)c2ccccc2)CCN1S(=O)(=O)c1ccc(C(=O)c2ccco2)s1` (centres unmarked) [Example 110, {4-[5-(Furan-2-carbonyl)-thiophene-2-sulfonyl]-3-methyl-piperazin-1-yl}-phenylmethanone], > 5 µM. Take `Cc1nnc(-c2ccc(C(=O)C(=O)N3CCN(C(=O)c4ccccc4)C[C@H]3C)cc2)s1` [Example 233]: the 50% inhibitory concentration (IC50) was < 5 µM. In the case of `C[C@@H]1CN(C(=O)c2ccccc2)CCN1C(=O)C(=O)c1ccc(-c2cnco2)c(Cl)c1` [Example 189] it was < 5 µM; in that of `COc1cc(-c2cc[nH]n2)ccc1C(=O)C(=O)N1CCN(C(=O)c2ccccc2)C[C@H]1C` [Example 190], < 5 µM. In the case of `C[C@@H]1CN(C(=O)c2ccccc2)CCN1C(=O)C(=O)c1c[nH]c(-c2ccc3[nH]ccc3c2)c1` [Example 241] it was > 5 µM. In the case of `C[C@@H]1CN(C(=O)c2ccccc2)CCN1C(=O)C(=O)c1cc(Cl)c(-c2cc[nH]n2)c(Cl)c1N` [Example 230] it was > 5 µM. On to `COc1cc(-c2onc(C)c2Cl)ccc1C(=O)C(=O)N1CCN(C(=O)c2ccccc2)C[C@H]1C` [Example 229], for which the half-inhibitory concentration (IC50) is < 5 µM. Under `Cc1noc(C)c1-c1ccc(C(=O)C(=O)N2CCN(C(=O)c3ccccc3)C[C@H]2C)cn1` [Example 194] stands > 5 µM; under `CC1CN(C(=O)c2ccccc2)CCN1C(=O)C(=O)c1ccc(-n2cncn2)cc1` (centres unmarked) [Example 170, 1-(4-Benzoyl-2-methyl-piperazin-1-yl)-2-(4-[1,2,4]triazol-1-yl-phenyl)-ethane-1,2-dione], < 5 µM. Turning to `C[C@@H]1CN(C(=O)c2ccccc2)CCN1C(=O)C(=O)c1ccc(Br)c(Cl)c1` [Example 225], the IC50 was < 5 µM. Turning to `CC1CN(C(=O)c2ccccc2)CCN1C(=O)C(=O)c1ccc(-n2nccn2)cc1` (centres unmarked) [Example 174, 1-(4-Benzoyl-2-methyl-piperazin-1-yl)-2-(4-[1,2,3]triazol-2-yl-phenyl)-ethane-1,2-dione], the IC50 was < 5 µM. Take `C[C@@H]1CN(C(=O)c2ccccc2)CCN1C(=O)C(=O)c1ccc(-c2ccn[nH]2)nc1` [Example 186, 1-((R)-4-Benzoyl-2-methyl-piperazin-1-yl)-2-[6-(1H-pyrazol-3-yl)-pyridin-3-yl]-ethane-1,2-dione]: the IC50 is < 5 µM.

With `CC1CN(C(=O)c2ccccc2)CCN1S(=O)(=O)c1ccc(-c2ccc(C#N)cn2)s1` (centres unmarked) [Example 147], the IC50 was < 5 µM. In the case of `COc1cc(C(=O)C(=O)N2CCN(C(=O)c3ccccc3)C[C@H]2C)ccc1-c1cc(C)no1` [Example 185] it was < 5 µM; in that of `Cc1cc(-c2cc(Cl)c(C(=O)C(=O)N3CCN(C(=O)c4ccccc4)C[C@H]3C)c(Cl)c2)on1` [Example 220], > 5 µM; in that of `Cc1ccc(C#N)c(-c2ccc(S(=O)(=O)N3CCN(C(=O)c4ccccc4)CC3C)s2)n1` (centres unmarked) [Example 136, 2-(5-(4-benzoyl-2-methylpiperazin-1-ylsulfonyl)thiophen-2-yl)-6-methylnicotinonitrile], > 5 µM.

With `COc1cc(Br)c(Cl)cc1C(=O)C(=O)N1CCN(C(=O)c2ccccc2)CC1` [Example 228], the IC50 is < 5 µM. In the case of `C[C@@H]1CN(C(=O)c2ccccc2)CCN1C(=O)C(=O)c1ccc(-n2ccnn2)c(Cl)c1` [Example 232] it was > 5 µM; in that of `CC1CN(C(=O)c2ccccc2)CCN1S(=O)(=O)c1ccc(-c2ccc3ccccc3n2)s1` (centres unmarked) [Example 135, (3-methyl-4-(5-(quinolin-2-yl)thiophen-2-ylsulfonyl)piperazin-1-yl)(phenyl)methanone], > 5 µM.
